Assay results reported in ChEMBL document CHEMBL1201862, “PubChem BioAssay data set” (2004).
Calls of active or inactive are those of the source.

Legend:
Aminopeptidase N = biological target: T1, Aminopeptidase N (Plasmodium falciparum FcB1/Columbia, UniProt O96935); test: P. falciparum M1AAP inhibitors, biochemical, fluorogenic H-Leu-NHMec substrate, 1536-well (AID 1445); parameters: species or system Plasmodium falciparum 3D7, 3D7
T1 sequence (O96935 whole entry): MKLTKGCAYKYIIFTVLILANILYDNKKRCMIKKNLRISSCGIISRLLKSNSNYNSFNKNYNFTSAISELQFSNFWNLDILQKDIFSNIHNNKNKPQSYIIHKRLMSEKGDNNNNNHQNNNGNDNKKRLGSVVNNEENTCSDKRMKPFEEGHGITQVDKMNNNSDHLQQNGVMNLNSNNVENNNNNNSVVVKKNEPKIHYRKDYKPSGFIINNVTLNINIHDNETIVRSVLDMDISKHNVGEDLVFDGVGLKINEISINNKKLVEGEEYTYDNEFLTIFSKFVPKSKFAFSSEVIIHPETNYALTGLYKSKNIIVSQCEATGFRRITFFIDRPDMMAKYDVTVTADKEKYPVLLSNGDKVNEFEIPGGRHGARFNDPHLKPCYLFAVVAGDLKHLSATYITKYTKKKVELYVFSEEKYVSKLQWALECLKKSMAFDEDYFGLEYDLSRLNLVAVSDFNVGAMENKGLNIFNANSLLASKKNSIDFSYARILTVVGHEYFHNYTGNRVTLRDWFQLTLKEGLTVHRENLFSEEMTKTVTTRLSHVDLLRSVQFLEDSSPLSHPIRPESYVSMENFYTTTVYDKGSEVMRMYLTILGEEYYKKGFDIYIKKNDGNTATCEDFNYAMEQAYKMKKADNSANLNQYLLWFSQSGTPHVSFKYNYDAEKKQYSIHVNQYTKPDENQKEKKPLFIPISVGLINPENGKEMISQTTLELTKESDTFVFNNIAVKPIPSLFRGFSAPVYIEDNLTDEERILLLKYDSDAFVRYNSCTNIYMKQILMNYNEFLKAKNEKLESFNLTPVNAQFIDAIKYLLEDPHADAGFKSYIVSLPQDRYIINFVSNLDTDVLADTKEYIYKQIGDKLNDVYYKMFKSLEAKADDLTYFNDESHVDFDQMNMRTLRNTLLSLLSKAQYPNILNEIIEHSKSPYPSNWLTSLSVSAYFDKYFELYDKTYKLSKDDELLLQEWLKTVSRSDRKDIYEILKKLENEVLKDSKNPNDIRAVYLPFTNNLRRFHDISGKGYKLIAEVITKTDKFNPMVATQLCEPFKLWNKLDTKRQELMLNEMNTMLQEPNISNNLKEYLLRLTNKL

[1] = test system: Streptococcus sp. 'group A'; test: growth inhibition of control SK(-) GAS strain, dose response, counter-screen for streptokinase expression inhibitor project, luminescence, kanamycin, BacTiterGlo, confirmation (AID 1900); format: functional, organism-based
Streptokinase A = biological target: T2, Streptokinase A (Streptococcus pyogenes serotype M1, UniProt P10520); test: S. pyogenes streptokinase expression inhibitors, potency, dose response, plasminogen activation absorbance, OD405 (AID 1914); format: functional, Streptococcus pyogenes M1 GAS;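 further: secreted streptokinase activity via plasminogen activation per viability signal from cell pellet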
T2 sequence (P10520 whole entry): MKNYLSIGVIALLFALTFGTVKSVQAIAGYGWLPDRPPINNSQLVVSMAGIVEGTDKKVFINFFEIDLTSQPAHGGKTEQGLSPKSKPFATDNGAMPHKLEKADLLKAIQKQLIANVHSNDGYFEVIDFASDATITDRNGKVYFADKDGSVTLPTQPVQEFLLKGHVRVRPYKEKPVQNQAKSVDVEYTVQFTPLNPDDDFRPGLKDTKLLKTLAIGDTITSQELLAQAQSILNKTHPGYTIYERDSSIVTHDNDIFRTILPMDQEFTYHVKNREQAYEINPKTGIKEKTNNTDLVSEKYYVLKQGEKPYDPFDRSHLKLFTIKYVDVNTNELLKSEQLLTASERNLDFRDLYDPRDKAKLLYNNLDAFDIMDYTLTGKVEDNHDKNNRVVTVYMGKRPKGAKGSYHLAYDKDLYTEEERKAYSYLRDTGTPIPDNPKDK

[2] = HIV-1 Env-mediated cell fusion inhibitors, dose response, CCR5-tropic Env (AID 2279); format: functional
Streptococcus = test: Group A Streptococcus viability loss, dose response, counter-screen for streptokinase expression inhibitor project, luminescence, BacTiterGlo (AID 1915); format: functional, organism-based;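 further: potency for reduction of bacterial viability or growth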
[3] = biological target: T3, Replicative DNA helicase DnaB (Mycobacterium tuberculosis, UniProt P9WMR3); test: DnaB intein splicing inhibitors, dose response, biochemical, cell-free fluorescence (AID 449749); format: functional
T3 sequence (P9WMR3 whole entry): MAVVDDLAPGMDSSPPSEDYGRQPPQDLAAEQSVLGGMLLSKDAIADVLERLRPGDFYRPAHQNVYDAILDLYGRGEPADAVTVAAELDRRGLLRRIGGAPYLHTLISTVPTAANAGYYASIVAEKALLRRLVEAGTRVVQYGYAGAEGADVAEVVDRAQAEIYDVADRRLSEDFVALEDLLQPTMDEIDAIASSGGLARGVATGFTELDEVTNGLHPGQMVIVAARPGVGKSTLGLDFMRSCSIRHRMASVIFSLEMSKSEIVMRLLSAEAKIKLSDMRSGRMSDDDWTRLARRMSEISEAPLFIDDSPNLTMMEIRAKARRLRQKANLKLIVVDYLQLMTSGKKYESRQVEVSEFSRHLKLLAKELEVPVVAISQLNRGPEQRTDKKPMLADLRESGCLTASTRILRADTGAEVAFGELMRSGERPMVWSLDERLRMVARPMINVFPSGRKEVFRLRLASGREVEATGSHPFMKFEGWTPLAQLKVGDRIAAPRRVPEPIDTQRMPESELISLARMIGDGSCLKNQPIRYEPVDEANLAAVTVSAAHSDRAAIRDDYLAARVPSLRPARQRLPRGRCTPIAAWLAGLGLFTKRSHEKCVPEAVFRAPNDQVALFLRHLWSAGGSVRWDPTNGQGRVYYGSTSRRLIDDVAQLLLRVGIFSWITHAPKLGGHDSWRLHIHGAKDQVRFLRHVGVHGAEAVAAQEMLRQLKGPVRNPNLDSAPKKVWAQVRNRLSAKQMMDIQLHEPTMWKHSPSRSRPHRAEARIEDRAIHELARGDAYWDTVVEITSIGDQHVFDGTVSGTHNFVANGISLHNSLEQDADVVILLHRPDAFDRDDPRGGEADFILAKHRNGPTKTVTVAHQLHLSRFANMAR

Protein RecA = biological target: T4, Protein RecA (Mycobacterium tuberculosis, UniProt P9WHJ3); test: Fluorescence Cell-Free Homogeneous Dose Retest to Identify Inhibitors of RecA-Intein Splicing Activity. [Related pubchem assays (depositor defined):AID2097, AID2223, AID489010, AID492950]; format: functional
T4 sequence (P9WHJ3 whole entry): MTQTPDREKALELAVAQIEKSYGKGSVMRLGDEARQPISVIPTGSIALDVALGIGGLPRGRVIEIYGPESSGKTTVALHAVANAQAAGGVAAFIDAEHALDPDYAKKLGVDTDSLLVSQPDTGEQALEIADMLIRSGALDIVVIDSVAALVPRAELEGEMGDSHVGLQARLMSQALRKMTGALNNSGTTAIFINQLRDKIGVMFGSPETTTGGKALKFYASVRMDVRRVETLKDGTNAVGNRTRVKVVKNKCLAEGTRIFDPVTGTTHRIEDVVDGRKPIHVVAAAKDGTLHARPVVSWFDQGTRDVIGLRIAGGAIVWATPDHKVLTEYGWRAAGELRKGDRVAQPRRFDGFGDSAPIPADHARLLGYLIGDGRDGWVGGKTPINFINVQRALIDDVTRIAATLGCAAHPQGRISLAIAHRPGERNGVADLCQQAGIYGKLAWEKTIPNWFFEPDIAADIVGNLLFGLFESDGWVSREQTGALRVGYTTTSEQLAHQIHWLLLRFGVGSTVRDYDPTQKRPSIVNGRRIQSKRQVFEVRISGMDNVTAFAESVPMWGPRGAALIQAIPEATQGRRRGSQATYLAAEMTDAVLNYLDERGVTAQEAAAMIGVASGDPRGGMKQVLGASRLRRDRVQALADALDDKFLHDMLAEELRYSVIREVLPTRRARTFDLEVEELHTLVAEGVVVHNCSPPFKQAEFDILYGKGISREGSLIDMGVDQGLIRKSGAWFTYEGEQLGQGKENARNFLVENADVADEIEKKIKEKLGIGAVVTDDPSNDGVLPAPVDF

Genome polyprotein = Genome polyprotein (dengue virus type 2, UniProt P29990); test: Dengue-2 NS5 methyltransferase inhibitors, primary screen, biochemical, confirmation dose response (AID 588689); format: functional
Sequence of Genome polyprotein (P29990 2492-3391 limits assumed): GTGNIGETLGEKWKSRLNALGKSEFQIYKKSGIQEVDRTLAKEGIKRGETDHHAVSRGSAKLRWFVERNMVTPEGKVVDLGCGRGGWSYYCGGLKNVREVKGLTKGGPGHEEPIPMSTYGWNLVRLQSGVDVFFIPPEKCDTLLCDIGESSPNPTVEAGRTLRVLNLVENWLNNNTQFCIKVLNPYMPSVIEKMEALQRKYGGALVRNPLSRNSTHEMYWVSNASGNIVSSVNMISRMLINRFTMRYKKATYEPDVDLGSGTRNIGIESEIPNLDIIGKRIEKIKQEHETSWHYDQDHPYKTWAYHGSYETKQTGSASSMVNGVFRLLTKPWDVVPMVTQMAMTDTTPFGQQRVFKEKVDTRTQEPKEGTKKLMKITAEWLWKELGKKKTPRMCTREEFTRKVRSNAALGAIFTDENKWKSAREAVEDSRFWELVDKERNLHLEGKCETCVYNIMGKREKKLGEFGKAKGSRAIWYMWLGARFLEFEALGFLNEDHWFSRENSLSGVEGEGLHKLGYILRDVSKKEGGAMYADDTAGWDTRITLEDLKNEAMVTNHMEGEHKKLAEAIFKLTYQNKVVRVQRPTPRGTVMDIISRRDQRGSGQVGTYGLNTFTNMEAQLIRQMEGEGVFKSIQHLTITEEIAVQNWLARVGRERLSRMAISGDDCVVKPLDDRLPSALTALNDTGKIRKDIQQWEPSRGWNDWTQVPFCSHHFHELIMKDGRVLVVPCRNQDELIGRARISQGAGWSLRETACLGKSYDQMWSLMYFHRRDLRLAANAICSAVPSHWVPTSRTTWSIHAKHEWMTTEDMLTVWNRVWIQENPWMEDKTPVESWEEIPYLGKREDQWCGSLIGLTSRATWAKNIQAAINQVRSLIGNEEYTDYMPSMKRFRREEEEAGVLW

[4] = A Cell Based Secondary Assay To Explore Cytotoxicity of Compounds that Sensitize Mycobacterium Tuberculosis to Beta-Lactam Antibiotics.; format: functional
[5] = biological target: T5, Microphthalmia-associated transcription factor (Homo sapiens, UniProt O75030); test: TRPM1 promoter luciferase signal decrease, dose response, MITF inhibitor project, cell-based, SK-MEL-5, cherry-picked, set 3 (AID 493073); format: functional
T5 sequence (O75030 whole entry): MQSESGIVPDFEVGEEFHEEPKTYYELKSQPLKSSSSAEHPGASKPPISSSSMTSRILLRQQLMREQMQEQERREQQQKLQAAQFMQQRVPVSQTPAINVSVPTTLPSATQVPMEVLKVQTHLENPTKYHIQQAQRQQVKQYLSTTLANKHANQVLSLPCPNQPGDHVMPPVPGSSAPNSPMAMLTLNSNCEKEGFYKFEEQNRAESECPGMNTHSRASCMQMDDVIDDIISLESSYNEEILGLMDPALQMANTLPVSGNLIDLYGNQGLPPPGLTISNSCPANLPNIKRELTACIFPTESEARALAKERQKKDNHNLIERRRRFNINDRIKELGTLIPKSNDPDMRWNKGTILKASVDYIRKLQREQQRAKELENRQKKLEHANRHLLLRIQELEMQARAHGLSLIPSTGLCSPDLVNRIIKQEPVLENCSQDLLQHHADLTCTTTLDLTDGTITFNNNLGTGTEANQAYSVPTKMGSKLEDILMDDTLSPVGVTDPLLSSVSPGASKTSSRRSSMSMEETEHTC

Paired box protein Pax-8 = Paired box protein Pax-8 (Homo sapiens, UniProt Q06710); test: inhibitors of PAX8-driven TPO luciferase reporter, dose response, RMG-I cells, cherry-pick (AID 687027); format: functional, cell-based;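 further: luciferase reporter driven by Pax8 target thyroperoxidase promoter measured by SteadyGlo luminescence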
Sequence of Paired box protein Pax-8 (Q06710 whole entry): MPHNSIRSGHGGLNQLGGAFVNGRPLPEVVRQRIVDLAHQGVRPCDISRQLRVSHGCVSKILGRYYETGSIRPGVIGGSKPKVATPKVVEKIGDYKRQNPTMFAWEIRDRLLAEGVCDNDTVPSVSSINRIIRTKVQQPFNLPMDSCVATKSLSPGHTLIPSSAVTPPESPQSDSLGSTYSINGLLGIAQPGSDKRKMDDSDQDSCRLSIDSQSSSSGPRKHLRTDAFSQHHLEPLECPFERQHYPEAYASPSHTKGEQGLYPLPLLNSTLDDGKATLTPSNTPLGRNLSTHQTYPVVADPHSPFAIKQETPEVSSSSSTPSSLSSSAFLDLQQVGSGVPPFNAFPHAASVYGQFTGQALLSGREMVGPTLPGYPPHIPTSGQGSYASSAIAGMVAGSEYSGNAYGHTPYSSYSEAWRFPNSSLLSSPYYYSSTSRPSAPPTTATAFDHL

[6] = A549 cell cytotoxicity, dose response, cytotoxicity control, plate reader, cherry-pick, antagonist series (AID 743412); format: functional, cell-based
[7] = HepG2 cell cytotoxicity, dose response, cytotoxicity control, plate reader, cherry-pick, antagonist series (AID 743416); format: functional, cell-based
[8] = LGR2 antagonists, dose response, cell-based, HEK293, CRE-luciferase reporter, cherry pick, set 2 (AID 743343); format: functional;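 further: transfected cells were stimulated with diluted bursicon conditioned medium after compound addition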
[9] = MC4R antagonists, dose response, counter-screen for LGR2 antagonist project, cell-based, plate reader, cherry pick (AID 743444); format: functional;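 further: transfected HEK 293 cells stimulated with alpha-MSH peptide; potency of inhibitors of the alpha-MSH evoked signal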
[10] = HEK293 cell cytotoxicity, dose response, cytotoxicity control, plate reader, cherry-picked samples (AID 743446); format: functional, cell-based
[11] = biological target: Serine/threonine-protein phosphatase PP1-alpha catalytic subunit (Homo sapiens, UniProt P62136); test: PP1 phosphatase inhibitors, dose response, biochemical, fluorescence (AID 2403);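 further: phosphatase turnover of OMFP into fluorescent 3-O-methylfluorescein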
Sequence of Serine/threonine-protein phosphatase PP1-alpha catalytic subunit (P62136 whole entry): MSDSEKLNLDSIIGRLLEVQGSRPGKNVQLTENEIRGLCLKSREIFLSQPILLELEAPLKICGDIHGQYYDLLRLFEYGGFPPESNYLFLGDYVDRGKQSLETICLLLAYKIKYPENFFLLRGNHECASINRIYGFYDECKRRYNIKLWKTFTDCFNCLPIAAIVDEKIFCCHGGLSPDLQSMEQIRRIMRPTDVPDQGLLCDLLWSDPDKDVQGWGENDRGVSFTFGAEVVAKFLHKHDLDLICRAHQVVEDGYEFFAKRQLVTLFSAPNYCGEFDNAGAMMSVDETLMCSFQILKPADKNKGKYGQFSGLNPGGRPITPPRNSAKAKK

[12] = inhibitors of intracellular T. cruzi replication, confirmation, NIH3T3 host cells, beta-gal luminescence (AID 2044); format: functional, cell-based;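 further: intracellular parasites grown in NIH/3T3 mouse fibroblasts as host cells; luminescent beta-galactosidase reporter signal from transgenic T. cruzi replicating inside host cells; inhibitors lower the luminescence signal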
[13] = biological target: Serine/threonine-protein phosphatase (Homo sapiens, UniProt Q9BPW0); test: Counterscreen for inhibitors of PP1: fluorescence-based biochemical high throughput dose response assay to identify inhibitors of Protein Phosphatase 5 (PP5). [Related pubchem assays: 2034 (Summary (PP5 inhibitors)), 1987 (PP5 inhibitors in singlate), 2235 (PP1 inhibitors in singlate)]
Sequence of Serine/threonine-protein phosphatase (Q9BPW0 whole entry): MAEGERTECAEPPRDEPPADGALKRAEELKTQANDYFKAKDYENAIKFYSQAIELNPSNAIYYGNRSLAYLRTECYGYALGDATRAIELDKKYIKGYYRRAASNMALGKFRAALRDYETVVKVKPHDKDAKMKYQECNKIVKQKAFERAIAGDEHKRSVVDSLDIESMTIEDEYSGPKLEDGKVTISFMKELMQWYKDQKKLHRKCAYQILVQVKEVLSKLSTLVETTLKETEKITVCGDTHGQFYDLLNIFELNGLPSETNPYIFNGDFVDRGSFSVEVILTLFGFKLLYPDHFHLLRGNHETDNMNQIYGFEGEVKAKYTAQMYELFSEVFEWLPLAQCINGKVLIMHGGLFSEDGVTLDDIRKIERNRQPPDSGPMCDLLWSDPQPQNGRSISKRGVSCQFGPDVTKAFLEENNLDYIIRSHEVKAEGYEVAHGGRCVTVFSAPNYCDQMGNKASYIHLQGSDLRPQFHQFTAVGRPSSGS

[14] = cytotoxicity toward NIH3T3 fibroblasts, dose response, counter-screen, cell-based, ATP luminescence, mouse fibroblasts (AID 2010); format: functional;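 further: cells exposed to compound for about 90 hours before reading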
INS1 = test: beta cell apoptosis inhibitors, cytokine rescue, dose response, luminescence, retest (AID 449756); format: functional, cell-based; details: Rattus norvegicus;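 further: cell death triggered by IL-1 beta plus TNF-alpha plus IFN-gamma mixture; protective hits raise ATP signal compared with cytokine alone wells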

O=C(O)c1ccccc1-c1ccccc1C(=O)Nc1ccc(-c2nc3cc(Cl)ccc3o2)cc1
> 150 µM (not active): EC50 (Streptokinase A)
active: IC50 (Aminopeptidase N) 32.6 µM | EC50 [1] 7.55 µM | IC50 [2] > 50 µM | EC50 (Streptococcus) 14 µM | AC50 [3] 3.18 µM | EC50 (Protein RecA) 11.7 µM | IC50 (Genome polyprotein) 54 µM

Cn1nnnc1Sc1ncnc2scc(-c3cccc(F)c3)c12
active: CC50 [4] 17.6 µM | AC50 [5] 5.98 µM | AC50 (Paired box protein Pax-8) 2.64 µM | AC50 [6] 7.53 µM | AC50 [7] 6.73 µM | AC50 [8] 6.24 µM | AC50 [9] 12 µM | AC50 [10] 6.26 µM

COc1ccc(Sc2nc(-c3ccccn3)ncc2OC)cc1
> 67 µM (not active): IC50 [13]
inconclusive: EC50 [14] > 60 µM
active: IC50 [11] 6.04 µM | EC50 [12] 1.9 µM | AC50 (INS1) 5.13 µM
